Measured values reported in patent US11318137B2, “Quinazoline compounds as modulators of Ras signaling” (VANDERBILT UNIVERSITY, priority 2017, dated 2022).

How the values were obtained:
[1] = tested on: H727 lung cancer cell lines, which contain a G12V K-Ras mutation; assay: Inhibition of cancer cell proliferation (CellTiter-Glo, 3 days); assay type: cell-based; details: Homo sapiens, NCI-H727, 72 h, H727 cells, 3 days at 37° C., normalized to DMSO control, read-out: Cell proliferation activity (H727 cancer cell line proliferation IC50)
Procedure: C. Inhibition of Cancer Cell Proliferation
Compounds of the present invention were measured for their ability to kill H727 lung cancer cell lines, which contain a G12V K-Ras mutation. Cell proliferation experiments were conducted in 96-well plates. Cells were plated at 1000 cells/well, incubated overnight, followed by treatment with a dose range of compound for 3 days at 37° C. Cell proliferation was assessed using a CellTiter-Glo assay (Promega) according to the manufacturer's protocol. Data were normalized to DMSO control. IC50 values were determined using a four-parameter dose-response (variable slope) equation. These assays are performed in a manner analogous to the assay disclosed in: Burns, M. C.; Sun, Q.; Daniels, R. N.; Camper, D. V.; Kennedy, J. P.; Phan, J.; Olejniczak, E. O.; Lee, T.; Waterson, A. G.; Rossanese, O. W.; Fesik, S. W. “Approach for targeting Ras with small molecules that activate SOS-mediated nucleotide exchange” Proc. Natl. Acad. Sci. 2014; 11(9): 3401-3406. PMCID: PMC3948241.

[2] = molecular target: T1, SOS-mediated nucleotide exchange on Ras (Homo sapiens, UniProt Q07889); assay: SOS-mediated nucleotide exchange on Ras (BODIPY-GDP fluorescence); assay type: biochemical; details: Ras loaded with BODIPY-GDP, GTP and SOS added; EC50 from derived exchange rates
T1 sequence (Q07889 1-1333): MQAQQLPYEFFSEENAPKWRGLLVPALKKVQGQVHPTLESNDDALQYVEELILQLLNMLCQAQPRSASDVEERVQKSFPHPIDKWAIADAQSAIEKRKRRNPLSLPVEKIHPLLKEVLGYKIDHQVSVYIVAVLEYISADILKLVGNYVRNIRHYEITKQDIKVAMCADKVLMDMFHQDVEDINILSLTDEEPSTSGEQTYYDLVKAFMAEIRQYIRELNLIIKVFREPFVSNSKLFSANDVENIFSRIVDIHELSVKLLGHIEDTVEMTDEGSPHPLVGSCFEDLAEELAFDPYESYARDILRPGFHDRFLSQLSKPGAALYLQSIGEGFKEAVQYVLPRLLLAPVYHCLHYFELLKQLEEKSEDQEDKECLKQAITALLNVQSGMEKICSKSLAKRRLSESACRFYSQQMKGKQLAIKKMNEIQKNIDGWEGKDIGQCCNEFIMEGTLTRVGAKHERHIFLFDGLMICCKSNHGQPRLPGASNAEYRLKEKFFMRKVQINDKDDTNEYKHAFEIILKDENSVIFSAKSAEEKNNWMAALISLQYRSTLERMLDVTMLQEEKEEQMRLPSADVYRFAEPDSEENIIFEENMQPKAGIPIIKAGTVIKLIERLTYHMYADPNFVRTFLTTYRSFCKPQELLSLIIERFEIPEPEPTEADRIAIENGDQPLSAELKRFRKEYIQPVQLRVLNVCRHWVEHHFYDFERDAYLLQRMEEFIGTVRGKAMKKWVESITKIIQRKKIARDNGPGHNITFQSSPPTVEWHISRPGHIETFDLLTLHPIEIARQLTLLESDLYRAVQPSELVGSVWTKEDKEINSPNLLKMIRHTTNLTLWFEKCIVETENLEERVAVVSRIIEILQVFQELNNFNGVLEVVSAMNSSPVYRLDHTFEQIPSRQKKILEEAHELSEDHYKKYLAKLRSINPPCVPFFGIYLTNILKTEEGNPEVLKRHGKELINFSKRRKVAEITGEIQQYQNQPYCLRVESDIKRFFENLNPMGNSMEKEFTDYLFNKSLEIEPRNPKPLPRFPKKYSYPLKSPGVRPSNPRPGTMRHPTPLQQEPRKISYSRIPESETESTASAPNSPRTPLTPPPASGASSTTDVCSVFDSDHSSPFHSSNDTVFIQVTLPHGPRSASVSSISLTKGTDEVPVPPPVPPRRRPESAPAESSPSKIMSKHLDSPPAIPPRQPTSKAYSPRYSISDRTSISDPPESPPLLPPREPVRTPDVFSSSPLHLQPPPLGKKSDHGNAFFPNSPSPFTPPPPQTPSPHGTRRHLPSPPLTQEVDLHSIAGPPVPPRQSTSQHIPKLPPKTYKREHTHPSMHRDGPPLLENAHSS
Outline: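 Compound, then GTP and SOS, were added to buffered Ras preloaded with BODIPY-GDP, and the fluorescence change from labeled GDP being exchanged for GTP was followed over time. Rates came from single-exponential fits, and EC50 from a four-parameter fit of mean rate against compound concentration.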

[3] = molecular target: T2, Son of Sevenless (SOS) (Homo sapiens, UniProt Q07889); assay: Binding to SOS, fluorescence polarization anisotropy (FPA) displacement of FITC-conjugated probe; details: binding affinity calculated from IC50 of FITC-probe displacement, read-out: Binding affinities (binding affinity to SOS)
T2 sequence (Q07889 564-1049 limits assumed): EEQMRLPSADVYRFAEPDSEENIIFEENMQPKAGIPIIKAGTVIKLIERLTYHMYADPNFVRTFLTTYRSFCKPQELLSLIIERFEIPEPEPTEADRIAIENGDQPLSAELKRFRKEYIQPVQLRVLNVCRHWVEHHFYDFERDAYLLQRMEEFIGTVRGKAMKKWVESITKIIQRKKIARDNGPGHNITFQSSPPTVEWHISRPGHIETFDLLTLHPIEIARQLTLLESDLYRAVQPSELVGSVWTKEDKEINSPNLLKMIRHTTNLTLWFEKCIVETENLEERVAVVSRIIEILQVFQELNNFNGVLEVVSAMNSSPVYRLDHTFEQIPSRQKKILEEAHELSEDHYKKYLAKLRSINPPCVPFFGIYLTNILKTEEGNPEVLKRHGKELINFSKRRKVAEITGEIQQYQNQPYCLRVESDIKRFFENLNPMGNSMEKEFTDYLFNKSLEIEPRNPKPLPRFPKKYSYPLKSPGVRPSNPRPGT
Outline: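 FITC-labelled probe incubated with SOS in buffer; displacement by test compound across a dose range read as fluorescence anisotropy change. IC50 from four-parameter variable-slope fit, binding affinity calculated from IC50.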

SMILES | IC50 [1] [µM] | EC50 [2] [µM] | Ki [3] [µM]
Fc1cc(F)cc(Nc2nc(NCc3ncc[nH]3)c3ccccc3n2)c1 [Example 22, N^4-((1H-imidazol-2-yl)methyl)-N^2-(3,5-difluorophenyl)quinazoline-2,4-diamine] | > 20 | > 30 | > 5
CC[C@@H](Nc1nc(Nc2ccc(F)c(Cl)c2)nc2ccccc12)c1cccs1 [Example 39, (R)—N^2-(3-chloro-4-fluorophenyl)-N^4-(1-(thiophen-2-yl)propyl)quinazoline-2,4-diamine] | 5 to 20 | 1 to 5 | > 5
CC[C@@H](Nc1nc(Nc2ccc(F)c(Cl)c2)nc2c(C3=CCNCC3)cccc12)C1CC1 [Example 51, (R)—N^2-(3-chloro-4-fluorophenyl)-N^4-(1-cyclopropylpropyl)-8-(1,2,3,6-tetrahydropyridin-4-yl)quinazoline-2,4-diamine] | < 1 | 1 to 5 | < 1
C[C@@H](Nc1nc(Nc2ccc(F)c(Cl)c2)nc2c(C(=N)N)cccc12)C1CC1 [Example 57, (R)-2-((3-chloro-4-fluorophenyl)amino)-4-((1-cyclopropylethyl)amino)quinazoline-8-carboximidamide] | 1 to 5 | 1 to 5 | > 5
CNCc1cccc2c(N[C@H](C)C3CC3)nc(Nc3ccc(F)c(Cl)c3)nc12 [Example 58, (R)—N^2-(3-chloro-4-fluorophenyl)-N^4-(1-cyclopropylethyl)-8-((methylamino)methyl)quinazoline-2,4-diamine] | 1 to 5 | 5 to 30 | > 5
C[C@@H](Nc1nc(Nc2ccc(F)c(Cl)c2)nc2c(CNC(=N)N)cccc12)C1CC1 [Example 59, (R)-1-((2-((3-chloro-4-fluorophenyl)amino)-4-((1-cyclopropylethyl)amino)quinazolin-8-yl)methyl)guanidine] | 5 to 20 | 5 to 30 | > 5
CC[C@@H](Nc1nc(Nc2ccc(F)c(Cl)c2)nc2c(N3CCNCC3)cccc12)C1CC1 [Example 64, (R)—N^2-(3-chloro-4-fluorophenyl)-N^4-(1-cyclopropylpropyl)-8-(piperazin-1-yl)quinazoline-2,4-diamine] | < 1 | 1 to 5 | 1 to 5
CC[C@@H](Nc1nc(Nc2ccc(F)c(Cl)c2)nc2c(CN)cccc12)C1CC1 [Example 68, (R)-8-(aminomethyl)-N^2-(3-chloro-4-fluorophenyl)-N^4-(1-cyclopropylpropyl)quinazoline-2,4-diamine] | 1 to 5 | 1 to 5 | > 5
C[C@@H](Nc1nc(Oc2ccc(F)c(Cl)c2)nc2c(C3=CCNCC3)cccc12)C1CC1 [Example 69, (R)-2-(3-chloro-4-fluorophenoxy)-N-(1-cyclopropylethyl)-8-(1,2,3,6-tetrahydropyridin-4-yl)quinazolin-4-amine] | 1 to 5 | > 30 | > 5
C[C@@H](Nc1nc(Nc2cc[nH]n2)nc2c(C3=CCNCC3)cccc12)C1CC1 [Example 70, (R)—N^4-(1-cyclopropylethyl)-N^2-(1H-pyrazol-3-yl)-8-(1,2,3,6-tetrahydropyridin-4-yl)quinazoline-2,4-diamine] | 5 to 20 | > 30 | > 5
C[C@@H](Nc1nc(Nc2ccn(C)n2)nc2c(C3=CCNCC3)cccc12)C1CC1 [Example 71, (R)—N^4-(1-cyclopropylethyl)-N^2-(1-methyl-1H-pyrazol-3-yl)-8-(1,2,3,6-tetrahydropyridin-4-yl)quinazoline-2,4-diamine] | 1 to 5 | 5 to 30 | > 5
C[C@@H](Nc1nc(NCc2ncco2)nc2c(C3=CCNCC3)cccc12)C1CC1 [Example 72, (R)—N^4-(1-cyclopropylethyl)-N^2-(oxazol-2-ylmethyl)-8-(1,2,3,6-tetrahydropyridin-4-yl)quinazoline-2,4-diamine] | 5 to 20 | 5 to 30 | > 5
C1=C(c2cccc3c(NC(C4CC4)C4CC4)nc(NCC4CCCCC4)nc23)CCNC1 [Example 73, N^2-(cyclohexylmethyl)-N^4-(dicyclopropylmethyl)-8-(1,2,3,6-tetrahydropyridin-4-yl)quinazoline-2,4-diamine] | < 1 | 1 to 5 | 1 to 5
NCc1cccc2c(NC(C3CC3)C3CC3)nc(NCC3CCCCC3)nc12 [Example 75, 8-(aminomethyl)-N^2-(cyclohexylmethyl)-N^4-(dicyclopropylmethyl)quinazoline-2,4-diamine] | < 1 | 5 to 30 | > 5
C[C@@H](Nc1nc(NCC2CCCCC2)nc2c(C3=CCNCC3)cccc12)C1CC1 [Example 76, (R)—N^2-(cyclohexylmethyl)-N^4-(1-cyclopropylethyl)-8-(1,2,3,6-tetrahydropyridin-4-yl)quinazoline-2,4-diamine] | < 1 | 1 to 5 | 1 to 5
C[C@@H](Nc1nc(NCC2CCCCC2)nc2c(CN)cccc12)C1CC1 [Example 78, (R)-8-(aminomethyl)-N^2-(cyclohexylmethyl)-N^4-(1-cyclopropylethyl)quinazoline-2,4-diamine] | 5 to 20 | 1 to 5 | > 5
CCC(CC)CNc1nc(Nc2ccc(F)c(Cl)c2)nc2c(C3=CCNCC3)cccc12 [Example 98, N^2-(3-chloro-4-fluorophenyl)-N^4-(2-ethylbutyl)-8-(1,2,3,6-tetrahydropyridin-4-yl)quinazoline-2,4-diamine] | 1 to 5 | 5 to 30 | 1 to 5
CC[C@@H](Nc1nc(Nc2ccc(F)c(Cl)c2)nc2c(N3CCNCC3)cccc12)c1cccs1 [Example 101, (R)—N^2-(3-chloro-4-fluorophenyl)-8-(piperazin-1-yl)-N^4-(1-(thiophen-2-yl)propyl)quinazoline-2,4-diamine] | 1 to 5 | 5 to 30 | > 5
